Assay results: PubChem BioAssay (NCI)
Where “and” joins values, the source holds several entries; their conditions need not be identical. Equal values may be shown once.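 All cell lines were grown in 96-well plates and treated with compound for 48 hours. GI50: concentration for 50% inhibition of growth. TGI is the concentration that stops growth completely.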

What was measured:
Experiment in all cases: NCI-60 cell line screen, 48 h
[1] = test system: HCC-2998 colon
[2] = test system: HOP-62 NSCLC
[3] = test system: IGROV1 ovarian
[4] = test system: NCI-H522 lung
[5] = test system: OVCAR-3 ovarian
[6] = test system: OVCAR-4 ovarian
[7] = test system: SK-MEL-2 melanoma
[8] = test system: MDA-MB-231 breast
[9] = test system: MDA-N
[10] = test system: OVCAR-8 ovarian
[11] = test system: LOX IMVI melanoma
[12] = test system: PC-3 prostate

| SMILES | TGI [1] | TGI [2] | TGI [3] | TGI [4] | TGI [5] | TGI [6] | TGI [7] | TGI [8] | TGI [9] | TGI [10] | TGI [11] | GI50 [1] | GI50 [2] | GI50 [3] | GI50 [11] | GI50 [4] | GI50 [5] | GI50 [6] | GI50 [10] | TGI [12] |
| --- | --- | --- | --- | --- | --- | --- | --- | --- | --- | --- | --- | --- | --- | --- | --- | --- | --- | --- | --- | --- |
| O=C(OCc1ccccc1)OOC(=O)OCc1ccccc1 | > 100 µM | > 100 µM | > 100 µM | > 100 µM | > 100 µM | > 100 µM | > 100 µM |  |  |  |  |  |  |  |  |  |  |  |  |  |
| C[C@@H]1C[C@H](O)[C@]2(O)O[C@@H]3C[C@@]4(C=O)[C@@H](CC=C5[C@@H]4CC[C@]4(C)[C@@H](C6=CC(=O)OC6)CC[C@]54O)C[C@H]3O[C@@H]2O1 | 0.285 µM | 0.0319 µM |  | 0.0468 µM | 0.308 µM | < 0.0169 µM |  | 2.65 µM | 0.195 µM | 0.22 µM |  |  |  |  |  |  |  |  |  |  |
| CC(=O)Nc1ccc(Cl)c(Cl)c1 | > 100 µM | > 100 µM | > 100 µM | > 100 µM | > 100 µM |  |  |  |  | > 100 µM | > 100 µM |  |  |  |  |  |  |  |  |  |
| OCc1ccccc1C1CSCSC1 |  |  |  | > 100 µM | > 100 µM | > 100 µM | > 100 µM |  |  | > 100 µM | > 100 µM |  |  |  |  |  |  |  |  |  |
| Cc1oc2nc(N(C)C)n3nnnc3c2c1C | > 100 µM |  | > 100 µM | > 100 µM |  | > 100 µM |  | > 100 µM |  | > 100 µM | > 100 µM |  |  |  |  |  |  |  |  |  |
| COc1cc([C@@H]2c3cc4c(cc3C[C@H]3COC(=O)[C@@H]32)OCO4)cc(OC)c1OC | 1.01 µM | 40.5 µM | > 50 µM | 0.00689 µM | 0.0745 µM | > 50 µM | > 2.32 µM |  | 0.00582 µM | 0.324 µM | > 50 µM | 0.00446 µM | 0.00577 µM | 0.00618 µM | 0.00281 µM and 0.005 µM | 0.003 µM and 0.00924 µM | 0.00424 µM and 0.00911 µM | 21.8 µM | 0.00407 µM |  |
| CC(C)=CC1C(C(=O)O)C1(C)C (stereo not drawn) | > 750 µM | > 750 µM | > 750 µM | > 750 µM | > 750 µM | > 750 µM | > 750 µM |  |  | > 750 µM | > 750 µM |  |  |  |  |  |  |  |  |  |
| COc1ccc(CNc2nc3ccc(C(F)(F)F)cc3nc2-c2ccccc2)cc1OC | > 100 µM | > 100 µM |  |  | > 100 µM |  | > 100 µM |  |  | > 100 µM | > 100 µM |  |  |  |  |  |  |  |  |  |
| CCOc1ccc(N=C/C=C(\Cl)c2ccc3ccccc3c2)cc1 |  | 29.8 µM | 41.5 µM | 52.1 µM | 31.5 µM | 26.3 µM | 42.7 µM | 30.9 µM |  | 32.8 µM | 15.3 µM |  |  |  |  |  |  |  |  | 36 µM |
| CCOC(=O)c1cnc2[nH]ccn2c1=O |  | > 10 µM | > 10 µM |  | > 10 µM | > 10 µM | > 10 µM | > 10 µM | > 10 µM | > 10 µM | > 10 µM |  |  |  |  |  |  |  |  | > 10 µM |
| COc1cc2c(cc1OC)C(=O)/C(=C/c1cc(C)c(O)c(C)c1)C2 | > 100 µM | > 100 µM | > 100 µM | > 95.9 µM | > 100 µM | > 100 µM |  | > 100 µM |  |  | > 47.3 µM |  |  |  |  |  |  |  |  | > 100 µM |
| O=C(CCc1ccc(O)cc1)c1c(O)cc(O)cc1OC1OC(CO)C(O)C(O)C1O (stereo not drawn) | > 100 µM | > 100 µM | > 100 µM |  | > 100 µM | > 100 µM | > 100 µM |  | > 100 µM |  | > 100 µM |  |  |  |  |  |  |  |  | > 100 µM |
| CC(=O)/C(=C/n1c(=S)sc2ccccc21)C(=O)Nc1ccccc1C | > 100 µM | > 100 µM | > 100 µM |  | > 100 µM | > 100 µM | > 100 µM | > 100 µM | > 100 µM | > 100 µM | > 100 µM |  |  |  |  |  |  |  |  |  |
| O=C1C(Cl)N(c2ccccc2)C1c1c[nH]c2ccccc12 (stereo not drawn) |  | > 100 µM | > 100 µM | > 100 µM | > 100 µM | > 100 µM | > 100 µM |  |  | > 100 µM |  |  |  |  |  |  |  |  |  |  |
| COC1C=CC23c4cc5c(cc4C(O)OC2CN(C)C3C1)OCO5 (stereo not drawn) | 5.71 µM | 17.9 µM | 22.3 µM | 7 µM | 5.8 µM | 9.77 µM |  |  |  | 9.2 µM | 6.85 µM |  |  |  |  |  |  |  |  |  |
| CC(=O)CC(=O)c1cc2c(=O)oc(C)cc2oc1=O | > 37.5 µM | > 37.5 µM | > 37.5 µM | > 37.5 µM | > 37.5 µM | > 37.5 µM | > 37.5 µM |  | > 37.5 µM | > 37.5 µM |  |  |  |  |  |  |  |  |  | > 37.5 µM |
| Cc1cc2cccc(Cl)c2nc1C(=O)c1ccccc1 | > 100 µM | > 100 µM | > 100 µM | > 100 µM | > 100 µM | > 100 µM | > 100 µM |  |  | > 100 µM | > 100 µM |  |  |  |  |  |  |  |  |  |
| C(=Nc1ccc(-c2nc3ccccc3s2)cc1)c1ccco1 | > 100 µM | > 100 µM | > 100 µM | > 100 µM | > 100 µM | > 100 µM | > 100 µM |  | > 100 µM | > 100 µM | > 100 µM |  |  |  |  |  |  |  |  | > 100 µM |
| COc1cccc(C2c3cc4c(cc3OC(N3CCCC3)C2C)OCO4)c1OC (stereo not drawn) |  | 26.7 µM | 16.6 µM | 25.5 µM | 6.7 µM |  | 17.1 µM |  | 19.6 µM | 39.8 µM | 4.07 µM |  |  |  |  |  |  |  |  | 27.3 µM |
| C=CCCCC12CCCc3cccc(c31)NC2=O (stereo not drawn) | 30.8 µM | > 100 µM | 33.8 µM | 31.3 µM | 39.1 µM | 39.8 µM | 55.5 µM |  |  |  | 62.3 µM |  |  |  |  |  |  |  |  |  |
